Measurements as given in patent US7115584B2, “HIV-1 mutations selected for by β-2′,3′-didehydro-2′,3′-dideoxy-5-fluorocytidine” (priority 1999, dated 2006).
Where two headings read alike, the source gives them in different places.

Tests used:
HIV-1LAV = assay: Effect against HIV-1 and cloned viruses in human PBM cells; type: cell-based
M184VPITT = assay: as above; type: cell-based
[1] = tested on: 4X AZTPITT (67N, 70R, 215Y, 219Q); assay: as above; type: cell-based
M184V/T215YPITT = assay: as above; type: cell-based
215/41PITT = assay: as above; type: cell-based
[2] = tested on: G2-2PITT (103N, 41L, 184V, 210W, others); assay: Effect against cloned viruses, in MT-2 cells; type: cell-based, HIV-1; set-up: unit not given beside the values
[3] = tested on: acutely infected human PBM cells; assay: Median effect and combination index analysis, alone and in combination; type: cell-based; conditions: PBMC, 144 h
xxBRUPITT = assay: Effect against HIV-1 and cloned viruses in human PBM cells; type: cell-based
T215YPITT = assay: as above; type: cell-based
[4] = EC50 resistant virus vs HIV-1LAV or xxBRUPITT, listed as β-D-D4FC

`Nc1nc(=O)n([C@H]2C=C[C@@H](CO)O2)cc1F` [D-D4FC, β-2′,3′-didehydro-2′,3′-dideoxy-5-fluorocytidine] was tested. Which EC50 (HIV-1LAV; listed as β-D-D4FC) did it give?
The EC50 was 220 nM.

And the EC90 (HIV-1LAV; listed as β-D-D4FC)?
Its EC90 is 1320 nM.

What about the FI50 (M184VPITT; [4]) of the same compound?
Its FI50 is 2.

What about the FI50 ([1]; 4X AZTPITT, EC50 resistant virus vs HIV-1LAV or xxBRUPITT) of the same compound?
The FI50 was 1.

What about the FI90 ([1]; 4X AZTPITT, EC90 resistant virus vs HIV-1LAV or xxBRUPITT) of the same compound?
The FI90 was 1.

What about the EC90 ([1]; human PBM cells, 4X AZTPITT (67N, 70R, 215Y, 219Q), listed as β-D-D4FC) of the same compound?
Its EC90 is 460 nM.

What about the FI50 (M184V/T215YPITT; [4]) of the same compound?
The FI50 was 1.

What about the FI90 (M184V/T215YPITT; EC90 resistant virus vs HIV-1LAV or xxBRUPITT, listed as β-D-D4FC) of the same compound?
Its FI90 is 1.

And the FI90 (215/41PITT; EC90 resistant virus vs HIV-1LAV or xxBRUPITT)?
The FI90 was 1.

And the FI50 ([2]; listed as β-D-D4FC)?
Its FI50 is 0.2.

Which EC90 [3] does the source give for `Cc1cn([C@H]2C[C@H](N=[N+]=[N-])[C@@H](CO)O2)c(=O)[nH]c1=O` [AZT, 3′-azido-3′-deoxythymidine] here?
The EC90 was 32 nM.

How did the EC50 (HIV-1LAV) turn out when `Nc1nc(=O)n([C@H]2C=C[C@@H](CO)O2)cc1F` [β-L-D4FC, β-2′,3′-didehydro-2′,3′-dideoxy-5-fluorocytidine] was run?
The EC50 was 34 nM.

What about the EC90 (HIV-1LAV) of the same compound?
The EC90 was 160 nM.

And the EC50 (xxBRUPITT)?
The EC50 was 25 nM.

And the EC90 (xxBRUPITT)?
The EC90 was 88 nM.

And the EC50 (M184VPITT; human PBM cells)?
The EC50 was 3.66 µM.

What about the EC90 (M184VPITT; human PBM cells) of the same compound?
The EC90 was 14.3 µM.

And the EC50 (T215YPITT)?
The EC50 was 4.7 nM.

And the EC90 (T215YPITT)?
The EC90 was 30 nM.

What about the EC50 (M184V/T215YPITT; human PBM cells) of the same compound?
The EC50 was 8.3 µM.

And the EC90 (M184V/T215YPITT; human PBM cells)?
The EC90 was 74.6 µM.

What about the EC50 (215/41PITT; human PBM cells) of the same compound?
Its EC50 is 18 nM.

And the EC90 (215/41PITT; human PBM cells)?
Its EC90 is 66 nM.

And the FI50 [2]?
Its FI50 is over 47.
